Experimental data from article PMC11191101, “Investigation of Newly Synthesized Fluorinated Isatin-Hydrazones by In Vitro Antiproliferative Activity, Molecular Docking, ADME Analysis, and e-Pharmacophore Modeling” (ACS Omega, 2024).
pIC50: −log10 of the molar value. Entries after “also recorded” stand apart in the source; their conditions may differ.

Columns and labels:
[1] = tested on: HepG2 human liver epithelial carcinoma cell line; assay: MTT cytotoxicity, HepG2 liver cancer cells; assay type: cell-based; settings: for cytotoxic effect on HepG2 liver cancer cell line (in words) / selectivity index (SI), HEK-293T IC50 / HepG2 IC50: 72 h; for cytotoxic effect on HepG2 liver cancer cell line (in words): up to 200 μM; for selectivity index (SI), HEK-293T IC50 / HepG2 IC50: IC50 >200 taken as 200; for pIC50: Homo sapiens, HepG2, MTT, 72 h, 200, 100, 50, 25 μM tested
Protocol: (§1) Compounds (1–15) were screened in two cancer and normal cell lines at concentrations of 200, 100, 50, and 25 μM for 72 h.
(§2) This section of the study was performed following the procedure described in our previous study.[51],[52] The human lung cancer cell line (A549; ATCC CCL-185), human liver cancer cell line (HepG2; ATCC HB-8065), and human normal embryonic kidney cell line (HEK-293T) were cultured in high-glucose Dulbecco’s modified Eagle’s medium supplemented with 10% fetal bovine serum and 1% glutamax. Cells were seeded at a density of 5 × 10^3 cells/well in sterile 96-well plates and incubated for 24 h. Following incubation, the cells were exposed to the prepared compounds (1–15) and cisplatin at 200, 100, 50, and 25 μM concentrations for 72 h. After the incubation period, the medium in the plates was carefully removed and the prepared MTT solution was added to each well of the plates. The plates were incubated for 2 h in an incubator. Absorbance was measured using an Epoch 2 ELISA plate reader at 590 nm. The IC50 values were calculated using GraphPad Prism Software version 5.

[2] = tested on: HEK-293T human normal embryonic kidney cell line; assay: MTT toxicity, HEK-293T normal cells; assay type: cell-based; settings: 72 h; for pIC50: MTT, normal cell line, 200, 100, 50, 25 μM tested; for toxic effect on healthy HEK-293T cells (in words): up to 200 μM
Protocol: as §1, §2

[3] = tested on: A549 human lung epithelial carcinoma cell line; assay: MTT cytotoxicity, A549 lung cancer cells; assay type: cell-based; settings: for cytotoxic effect on A549 lung cancer cell line (in words) / selectivity index (SI), HEK-293T IC50 divided by A549 IC50: 72 h; for cytotoxic effect on A549 lung cancer cell line (in words): up to 200 μM; for selectivity index (SI), HEK-293T IC50 divided by A549 IC50: IC50 >200 taken as 200; for pIC50: MTT, 72 h, 200, 100, 50, 25 μM tested
Protocol: as §1, §2

Row | Compound | cytotoxic effect on HepG2 liver cancer cell line (in words) [1] | selectivity index (SI), HEK-293T IC50 / HepG2 IC50 [1] | pIC50 [1] | pIC50 ([2]; Homo sapiens, HEK-293T) | melting point | cytotoxic effect on A549 lung cancer cell line (in words) [3] | selectivity index (SI), HEK-293T IC50 divided by A549 IC50 [3] | pIC50 ([3]; Homo sapiens, A549) | toxic effect on healthy HEK-293T cells (in words) [2] | pIC50 [2] | pIC50 [3]
1 | O=C1Nc2ccc(F)cc2C1=NN=Cc1ccc([N+](=O)[O-])cc1 [Compound 8, 5-Fluoro-3-{[4-nitrobenzylidene]hydrazinylidene}indolin-2-one] | cytotoxic effects | 0.12 | 4.31 | 5.22 | 249 to 251 °C | cytotoxic effect | 0.14 | 4.37 |  |  | 
2 | O=C1Nc2ccc(F)cc2C1=NN=Cc1cccc(O)c1 [Compound 10, 5-Fluoro-3-{[3-hydroxybenzylidene]hydrazinylidene}indolin-2-one] | cytotoxic effects | 0.52 | 3.78 | 4.06 | 260 to 261 °C | cytotoxic effect | 0.48 | 3.74 |  |  | 
3 | O=C1Nc2ccc(F)cc2C1=NN=Cc1ccccc1 [Compound 2, 5-Fluoro-3-{[benzylidene]hydrazinylidene}indolin-2-one] |  |  | < 3.70 | < 3.70 | 229 to 230 °C | not active |  | < 3.70 |  |  | 
4 | COc1ccc(C=NN=C2C(=O)Nc3ccc(F)cc32)cc1O [Compound 14, 5-Fluoro-3-{[3-hydroxy-4-methoxybenzylidene]hydrazinylidene}indolin-2-one] |  |  | < 3.70 | < 3.70 | 263 to 264 °C | cytotoxic effect | > 1.73 | 3.94 |  |  | 
5 | O=C1Nc2ccc(F)cc2C1=NN=Cc1ccc(F)cc1 [Compound 5, 5-Fluoro-3-{[4-fluorobenzylidene]hydrazinylidene}indolin-2-one] | cytotoxic effects | 1.78 | 3.97 | 3.71 | 246 to 248 °C | not active |  | < 3.70 | did not show high toxicity |  | 
6 | COc1ccc(C=NN=C2C(=O)Nc3ccc(F)cc32)c(O)c1 [Compound 13, 5-Fluoro-3-{[2-hydroxy-4-methoxybenzylidene]hydrazinylidene}indolin-2-one] |  |  | < 3.70 | < 3.70 | 257 to 258 °C | not active |  | < 3.70 |  |  | 
7 | COc1cc(C=NN=C2C(=O)Nc3ccc(F)cc32)ccc1O [Compound 15, 5-Fluoro-3-{[4-hydroxy-3-methoxybenzylidene]hydrazinylidene}indolin-2-one] |  |  | < 3.70 | < 3.70 | 232 to 233 °C | not active |  | < 3.70 |  |  | 
8 | N.N.[Cl][Pt][Cl] [cisplatin, reference compound] |  |  |  |  |  |  |  |  |  | 5.13 | 5.38
9 | O=C1Nc2ccc(F)cc2C1=NN=Cc1ccccc1O [Compound 9, 5-Fluoro-3-{[2-hydroxybenzylidene]hydrazinylidene}indolin-2-one] |  |  | < 3.70 | 3.85 | 252 to 253 °C | not active |  | < 3.70 | toxic effect |  | 
10 | Cc1ccc(C=NN=C2C(=O)Nc3ccc(F)cc32)cc1 [Compound 6, 5-Fluoro-3-{[4-methylbenzylidene]hydrazinylidene}indolin-2-one] |  |  | < 3.70 | 3.86 | 241 to 242 °C | not active |  | < 3.70 | toxic effect |  | 
11 | O=C1Nc2ccc(F)cc2C1=NN=Cc1ccc(Cl)cc1 [Compound 4, 5-Fluoro-3-{[4-chlorobenzylidene]hydrazinylidene}indolin-2-one] |  |  | < 3.70 | 4.53 | 257 to 258 °C | not active |  | < 3.70 | toxic effect; also recorded: highly toxic effects |  | 
12 | O=C1Nc2ccc(F)cc2C1=NN=Cc1ccc(O)cc1 [Compound 11, 5-Fluoro-3-{[4-hydroxybenzylidene]hydrazinylidene}indolin-2-one] |  |  | < 3.70 | < 3.70 | 275 to 276 °C | not active |  | < 3.70 |  |  | 
13 | NN=C1C(=O)Nc2ccc(F)cc21 [Compound 1, 5-Fluoro-3-hydrazonoindolin-2-one] |  |  | < 3.70 | < 3.70 | 203 to 204 °C | not active |  | < 3.70 |  |  | 
14 | COc1cccc(C=NN=C2C(=O)Nc3ccc(F)cc32)c1O [Compound 12, 5-Fluoro-3-{[2-hydroxy-3-methoxybenzylidene]hydrazinylidene}indolin-2-one] |  |  | < 3.70 | < 3.70 | 244 to 246 °C | cytotoxic effect | > 1.33 | 3.82 |  |  | 
15 | COc1ccc(C=NN=C2C(=O)Nc3ccc(F)cc32)cc1 [Compound 7, 5-Fluoro-3-{[4-methoxybenzylidene]hydrazinylidene}indolin-2-one] | cytotoxic effects | 1.29 | 3.82 | 3.70 | 247 to 248 °C | not active |  | < 3.70 |  |  | 
16 | O=C1Nc2ccc(F)cc2C1=NN=Cc1ccc(Br)cc1 [Compound 3, 5-Fluoro-3-{[4-bromobenzylidene]hydrazinylidene}indolin-2-one] |  |  | < 3.70 | 4.60 | 262 to 263 °C | cytotoxic effect | 0.13 | 3.73 | highly toxic effects |  | 
